The supplement of paper PMC10307832

Legend:
Assay in all cases: relative viability (nuclei count vs DMSO), 5 days (fraction); higher = more cells survive
CX-5461 + Olaparib = compound: Cc1cnc(CNC(=O)c2c(=O)c3ccc(N4CCCN(C)CC4)nc3n3c2sc2ccccc23)cn1 [CX-5461] + O=C(c1cc(Cc2n[nH]c(=O)c3ccccc23)ccc1F)N1CCN(C(=O)C2CC2)CC1 [Olaparib] (partner 8 µM)
Method in brief: (§1)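 After 5 days of treatment, lung cancer cells in 1536-well plates were fixed and stained in a single step (final 0.05% Triton X-100, 1% formaldehyde, 1 ug/ml Hoechst) and their nuclei counted on 4× images. Treatment had been applied by pin tool the day after seeding as one drug alone or as a fixed anchor-drug dose with five library-drug doses (not always all listed) in √10 steps. Relative viability is the nuclei count of treated wells divided by that of vehicle wells, and values are medians of duplicate plates.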

CX-5461 + Alpelisib = compound: Cc1cnc(CNC(=O)c2c(=O)c3ccc(N4CCCN(C)CC4)nc3n3c2sc2ccccc23)cn1 [CX-5461] + Cc1nc(NC(=O)N2CCC[C@H]2C(N)=O)sc1-c1ccnc(C(C)(C)C(F)(F)F)c1 [Alpelisib] (partner 2 µM)
Method in brief: as §1

IMD-0354 + Bortezomib = compound: O=C(Nc1cc(C(F)(F)F)cc(C(F)(F)F)c1)c1cc(Cl)ccc1O [IMD-0354] + CC(C)C[C@H](NC(=O)[C@H](Cc1ccccc1)NC(=O)c1cnccn1)B(O)O [Bortezomib] (partner 0.002 µM)
Method in brief: as §1

IMD-0354 + Linsitinib = compound: O=C(Nc1cc(C(F)(F)F)cc(C(F)(F)F)c1)c1cc(Cl)ccc1O [IMD-0354] + C[C@]1(O)C[C@@H](c2nc(-c3ccc4ccc(-c5ccccc5)nc4c3)c3c(N)nccn32)C1 [Linsitinib] (partner 1 µM)
Method in brief: as §1

| Cell Line | relative viability (CX-5461 + Olaparib; first compound 0.01 µM) | relative viability (CX-5461 + Olaparib; first compound 0.03162 µM) | relative viability (CX-5461 + Olaparib; first compound 0.1 µM) | relative viability (CX-5461 + Olaparib; first compound 0.3162 µM) | relative viability (CX-5461 + Olaparib; first compound 1 µM) | relative viability (CX-5461 + Alpelisib; first compound 0.01 µM) | relative viability (CX-5461 + Alpelisib; first compound 0.03162 µM) | relative viability (CX-5461 + Alpelisib; first compound 0.1 µM) | relative viability (CX-5461 + Alpelisib; first compound 0.3162 µM) | relative viability (CX-5461 + Alpelisib; first compound 1 µM) | relative viability (IMD-0354 + Bortezomib; first compound 0.04 µM) | relative viability (IMD-0354 + Bortezomib; first compound 0.1265 µM) | relative viability (IMD-0354 + Bortezomib; first compound 0.4 µM) | relative viability (IMD-0354 + Bortezomib; first compound 1.265 µM) | relative viability (IMD-0354 + Bortezomib; first compound 4 µM) | relative viability (IMD-0354 + Linsitinib; first compound 0.04 µM) | relative viability (IMD-0354 + Linsitinib; first compound 0.1265 µM) | relative viability (IMD-0354 + Linsitinib; first compound 0.4 µM) | relative viability (IMD-0354 + Linsitinib; first compound 1.265 µM) | relative viability (IMD-0354 + Linsitinib; first compound 4 µM) |
| --- | --- | --- | --- | --- | --- | --- | --- | --- | --- | --- | --- | --- | --- | --- | --- | --- | --- | --- | --- | --- |
| LU99A | 0.27 | 0.241 | 0.297 | 0.221 | 0.284 | 0.536 | 0.544 | 0.527 | 0.364 | 0.413 | 0.878 | 1.19 | 0.625 | 0.281 | 0.186 | 0.553 | 0.527 | 0.398 | 0.452 | 0.147 |
| NCI-H1355 | 0.758 | 0.811 | 0.689 | 0.736 | 0.714 | 0.867 | 0.82 | 0.928 | 0.758 | 0.878 | 1.42 | 1.24 | 0.833 | 0.224 | 0.256 | 1.04 | 0.708 | 0.757 | 0.795 | 0.203 |
| HCC-78 | 0.977 | 0.856 | 0.949 | 0.816 | 0.738 | 0.338 | 0.328 | 0.348 | 0.263 | 0.334 | 0.419 | 0.438 | 0.443 | 0.561 | 0.382 | 0.471 | 0.495 | 0.421 | 0.486 | 0.276 |
| NCI-H1563 |  |  |  |  |  | 0.903 | 0.85 | 0.899 | 0.901 | 0.489 | 1.01 | 0.927 | 0.768 | 0.403 | 0.38 | 1.25 | 1.06 | 1.11 | 0.784 | 0.457 |
| HCC-15 | 0.607 | 0.721 | 0.625 | 0.693 | 0.538 | 0.937 | 0.905 | 0.91 | 0.89 | 0.779 | 1 | 0.962 | 0.549 | 0.346 | 0.119 | 0.801 | 0.812 | 0.489 | 0.376 | 0.141 |
| EKVX | 0.931 | 0.901 | 0.983 |  | 0.73 | 0.93 | 0.865 | 0.902 |  | 0.883 | 1 | 1.39 |  | 0.716 | 0.187 | 1.1 | 0.961 |  | 0.743 | 0.232 |
| NCI-H2087 | 0.683 | 0.68 | 0.583 | 0.602 | 0.471 | 1.02 | 1.03 | 1.07 | 1.34 | 0.583 | 1.06 | 1 | 0.272 | 0.145 | 0.151 | 0.887 | 0.659 | 0.308 | 0.127 | 0.203 |
| NCI-H1395 | 0.457 | 0.427 | 0.443 | 0.435 | 0.456 | 1.31 | 0.935 | 0.897 | 0.704 | 0.561 |  |  |  |  |  | 1.02 | 1.28 | 0.99 | 0.395 | 0.42 |
